Reference: paper PMC9241686 (Microbiology Spectrum, 2022)
Like-named read-outs stand apart in the source and are kept apart here.

Experiments:
[1] = tested on: intracellular M. tuberculosis; parameters: method as in PMID 35046812; conditions: M. tuberculosis in RAW 264.7, high-content assay; primary screen hits; read-out: Intracellular TB IC50; cited from earlier work
[2] = tested on: HepG2 cells; parameters: method as in PMID 35046812; conditions: standard culture medium; primary screen hits; cited from earlier work
[3] = tested on: macrophages (RAW 264.7); parameters: method as in PMID 35046812; conditions: RAW 264.7 infected macrophages, high-content assay; primary screen hits; read-out: Macrophage IC50; cited from earlier work
[4] = tested on: extracellular M. tuberculosis; parameters: method as in PMID 35046812; conditions: standard culture medium; primary screen hits; read-out: Extracellular TB IC50; cited from earlier work
[5] = tested on: intracellular M. tuberculosis; assay: microbe, parasite or virus in culture; type: cell-based, Mycobacterium tuberculosis; conditions: for IC50 / Intracellular TB IC50: M. tuberculosis in RAW 264.7, high-content assay, 72 h; for IC50: read-out: Intracellular TB IC50; for selectivity index (SI): cytotoxicity IC50 over intracellular M. tuberculosis IC50; for fold difference between extracellular and intracellular IC50: extracellular versus intracellular M. tuberculosis
[6] = tested on: extracellular M. tuberculosis; assay: microbe, parasite or virus in culture; type: cell-based; conditions: Mycobacterium tuberculosis
[7] = tested on: macrophages (RAW 264.7); assay: cells; type: cell-based, murine; conditions: RAW 264.7 infected macrophages, high-content assay, 72 h; for IC50: Mus musculus, RAW264.7, read-out: Macrophage IC50
[8] = tested on: HepG2 cells; assay: cells; type: cell-based, human; conditions: 72 h, CellTiter-Glo; for IC50: Homo sapiens, HepG2
[9] = tested on: replicating M. tuberculosis; assay: Kill kinetics against replicating M. tuberculosis; type: cell-based, Mycobacterium tuberculosis; conditions: up to 100 μM, over 21 days, aerobic culture in 7H9-Tw-OADC
[10] = tested on: extracellular M. tuberculosis; assay: microbe, parasite or virus in culture; type: cell-based, Mycobacterium tuberculosis; conditions: for IC50: Mycobacterium tuberculosis, 168 h, read-out: Cholesterol IC50; for Fold-change: glucose IC50 versus cholesterol IC50
[11] = Mycobacterium tuberculosis, RAW264.7, 72 h
[12] = 120 h, read-out: Extracellular TB IC50
[13] = glucose as carbon source, read-out: Glucose IC50

Compound: CCOc1ccc(NC(=S)Nc2ccccc2)cc1 [Compound 1]
- IC50 [1]: 0.4 µM
- IC50 [2]: > 100 µM
- IC50 [3]: > 100 µM
- IC50 [4]: > 20 µM

Compound: CCOc1ccc(NC(=S)Nc2ccc(C)c(C#N)c2)cc1 [Compound 2]
- IC50 [1]: 0.3 µM
- IC50 [2]: 64 µM
- IC50 [3]: 47 µM
- IC50 [4]: 9.5 µM

Compound: O=C(Nc1ccc(Cl)cc1)Nc1ccc(Nc2ccccc2)cc1 [Compound 3]
- IC50 [2]: > 100 µM
- IC50 [3]: 68 µM
- IC50 [4]: > 20 µM

Compound: O=C(Nc1ccc(C(F)(F)F)cc1)Nc1cccc(Cl)c1 [Compound 4]
- IC50 [1]: 0.7 µM
- IC50 [2]: 5.6 µM
- IC50 [3]: 1.8 µM
- IC50 [4]: 15 µM

Compound: Cc1cc(C)nc(NC(=N)Nc2ccc(Br)cc2)n1 [Compound 5]
- IC50 [1]: 1.3 µM
- IC50 [2]: 22 µM
- IC50 [3]: 18 µM
- IC50 [4]: 8.2 µM

Compound: Fc1cccc(NC(=S)Nc2ccccc2C(F)(F)F)c1 [Compound 7]
- IC50 [5, 11]: > 100 µM
- IC50 [6, 12]: > 200 µM
- IC50 [7]: 53 µM
- IC50 [8]: 86 µM

Compound: CCOc1ccc(NC(=S)NC)cc1 [Compound 8]
- IC50 [5]: 10 µM
- IC50 [5, 11]: < 20 µM
- IC50 [6, 12]: 80 µM
- IC50 [7]: > 100 µM
- IC50 [8]: > 100 µM

Compound: S=C(Nc1ccccc1)NC1CCCCC1 [Compound 9]
- Intracellular TB IC50 [5]: loss of intracellular activity
- IC50 [5, 11]: > 100 µM
- IC50 [6, 12]: 130 µM
- IC50 [7]: > 100 µM
- IC50 [8]: > 100 µM

Compound: CNC(=S)Nc1ccccc1 [Compound 10]
- IC50 [5, 11]: > 100 µM
- IC50 [6, 12]: > 200 µM
- IC50 [7]: > 100 µM
- IC50 [8]: > 100 µM

Compound: CCOc1ccc(NC(=S)Nc2ccccc2C(=O)OC)cc1 [Compound 11]
- IC50 [6, 12]: > 200 µM
- IC50 [7]: 46 µM
- IC50 [8]: > 100 µM

Compound: COc1ccc(NC(=S)Nc2ccccc2C)cc1 [Compound 12]
- IC50 [5]: 19 µM
- IC50 [5, 11]: < 20 µM
- IC50 [6, 12]: > 200 µM
- IC50 [7]: > 100 µM
- IC50 [8]: > 100 µM

Compound: COc1ccc(NC(=S)Nc2ccc(C(N)=O)cc2)cc1 [Compound 13]
- Intracellular TB IC50 [5]: inactive
- IC50 [5, 11]: > 100 µM
- IC50 [6, 12]: > 200 µM
- IC50 [7]: > 100 µM
- IC50 [8]: > 100 µM

Compound: CCOc1ccc(NC(=S)Nc2ccc(OC)cc2)cc1 [Compound 14]
- selectivity index (SI) [5]: > 588
- fold difference between extracellular and intracellular IC50 [5]: > 40 fold
- IC50 [6, 12]: 7.2 µM
- IC50 [6, 13]: 7.2 µM
- culture viability (CFU) in kill kinetics [9]: small decrease in viable bacteria at day 21 at the highest concentration
- IC50 [10]: 15 µM
- Fold-change [10]: 0.5
- IC50 [7]: > 100 µM
- IC50 [8]: > 100 µM

Compound: COc1ccc(NC(=S)Nc2ccccc2Cl)cc1 [Compound 15]
- IC50 [5]: 14 µM
- IC50 [5, 11]: < 20 µM
- IC50 [6, 12]: > 200 µM
- IC50 [7]: > 100 µM
- IC50 [8]: > 100 µM

Compound: CCOc1ccc2nc(NC(=S)Nc3ccccc3)sc2c1 [Compound 16]
- IC50 [5]: 0.75 µM
- IC50 [5, 11]: < 1 µM
- IC50 [6, 12]: 26 µM
- IC50 [6, 13]: 26 µM
- IC50 [10]: 6.6 µM
- Fold-change [10]: 3.9
- IC50 [7]: 28 µM
- IC50 [8]: 73 µM

Compound: S=C(Nc1ccccc1)Nc1ccc(Cl)cc1 [Compound 17]
- IC50 [5]: 16 µM
- IC50 [5, 11]: < 20 µM
- IC50 [6, 12]: 104 µM
- IC50 [7]: 42 µM
- IC50 [8]: 91 µM

Compound: COc1ccc(NC(=S)Nc2ccccc2C(F)(F)F)cc1OC [Compound 18]
- Intracellular TB IC50 [5]: inactive
- IC50 [5, 11]: > 100 µM
- IC50 [6, 12]: > 200 µM
- IC50 [7]: > 100 µM
- IC50 [8]: > 100 µM

Compound: COc1ccc(NC(=S)Nc2ccc(F)cc2)cc1 [Compound 20]
- IC50 [5, 11]: 9.2 µM
- IC50 [6, 12]: 91 µM
- IC50 [7]: > 100 µM
- IC50 [8]: > 100 µM

Compound: CCCc1nnc(NC(=S)Nc2ccccc2)s1 [Compound 21]
- selectivity index (SI) [5]: > 200
- IC50 [6, 12]: 14.5 µM
- IC50 [8]: > 100 µM

Compound: CC(C)(C)c1nnc(NC(=S)Nc2ccccc2)s1 [Compound 22]
- IC50 [5]: 0.51 µM
- IC50 [5, 11]: < 1 µM
- selectivity index (SI) [5]: > 200
- fold difference between extracellular and intracellular IC50 [5]: > 20 fold
- IC50 [6, 12]: 11 µM
- IC50 [6, 13]: 11 µM
- IC50 [10]: 5.7 µM
- Fold-change [10]: 1.9
- IC50 [7]: > 100 µM
- IC50 [8]: > 99 µM

Compound: FC(F)(F)c1cccc(NC(=S)Nc2cccnc2)c1 [Compound 23]
- IC50 [6, 12]: 125 µM
- IC50 [7]: 30 µM
- Macrophage IC50 [7]: cytotoxicity to macrophages
- IC50 [8]: 62 µM

Compound: COc1ccc(NC(=S)Nc2ccc(Br)cc2)cc1 [Compound 24]
- IC50 [5, 11]: 2.1 µM
- fold increase in potency ([5]; intracellular IC50, bromine replacing fluorine): 5 fold
- IC50 [6, 12]: 16 µM
- IC50 [7]: 72 µM
- IC50 [8]: > 100 µM

Compound: COc1cccc(NC(=S)Nc2cccc(C(F)(F)F)c2)c1 [Compound 25]
- IC50 [5, 11]: 9.6 µM
- IC50 [6, 12]: 63 µM
- IC50 [7]: 17 µM
- IC50 [8]: 24 µM

Compound: FC(F)(F)c1cccc(NC(=S)NCCc2ccc(Cl)cc2)c1 [Compound 26]
- IC50 [6, 12]: 30 µM
- IC50 [7]: 9.3 µM
- IC50 [8]: 23 µM

Compound: O=C(NC(=S)Nc1ccc2oc(-c3ccccc3)nc2c1)c1ccccc1 [Compound 27]
- selectivity index (SI) [5]: > 200
- fold difference between extracellular and intracellular IC50 [5]: > 500 fold
- IC50 [6, 12]: > 200 µM
- IC50 [7]: 80 µM
- IC50 [8]: > 100 µM

Compound: COc1ccc(C(F)(F)F)cc1NC(=O)Nc1cccc(Cl)c1 [Compound 28]
- IC50 [6, 12]: 25 µM
- IC50 [7]: 3 µM
- IC50 [8]: 12 µM

Compound: COc1ccc2nc(NC(=O)Nc3ccc(Cl)cc3)sc2c1 [Compound 29]
- IC50 [6, 12]: > 200 µM
- IC50 [7]: 56 µM
- IC50 [8]: > 100 µM

Compound: COc1ccc(NC(=O)Nc2nc3ccccc3s2)cc1 [Compound 30]
- IC50 [6, 12]: > 200 µM
- IC50 [7]: 52 µM
- IC50 [8]: 54 µM

Compound: CNC(=O)Nc1ccc(Br)cc1 [Compound 31]
- IC50 [5, 11]: 64 µM
- IC50 [6, 12]: > 200 µM
- IC50 [7]: > 100 µM
- IC50 [8]: > 100 µM

Compound: O=C(Nc1ccccc1)Nc1ccc(Cl)cc1 [Compound 33]
- IC50 [5, 11]: > 100 µM
- IC50 [6, 12]: > 200 µM
- IC50 [7]: > 100 µM
- IC50 [8]: > 100 µM

Compound: CC(C)(C)c1nnc(NC(=O)Nc2ccc(Cl)cc2)s1 [Compound 34]
- Intracellular TB IC50 [5]: lost activity
- IC50 [5, 11]: 84 µM
- IC50 [6, 12]: > 200 µM
- IC50 [7]: > 100 µM
- IC50 [8]: > 100 µM

Compound: O=C(Nc1cccc(Cl)c1)NC1CCCCC1 [Compound 35]
- IC50 [5, 11]: 4.5 µM
- IC50 [6, 12]: 28 µM
- IC50 [7]: > 100 µM
- HepG2 IC50 [8]: no cytotoxicity
- IC50 [8]: > 100 µM

Compound: Cc1nnc(NC(=O)Nc2ccccc2)s1 [Compound 36]
- IC50 [5, 11]: > 100 µM
- IC50 [6, 12]: > 200 µM
- IC50 [7]: > 100 µM
- IC50 [8]: > 100 µM

Compound: COc1cc(NC(=S)Nc2ccc(C(F)(F)F)cc2)cc(OC)c1 [Compound 37]
- IC50 [6, 12]: > 200 µM
- IC50 [7]: 29 µM
- IC50 [8]: 49 µM

Compound: CC(C)c1ccc(NC(=O)Nc2ccccc2)cc1 [Compound 38]
- IC50 [5, 11]: > 100 µM
- IC50 [6, 12]: > 200 µM
- IC50 [7]: 85 µM
- IC50 [8]: 55 µM

Compound: N#Cc1ccc(NC(=O)Nc2ccc(Cl)cc2)cc1 [Compound 39]
- IC50 [6, 12]: 11 µM
- IC50 [7]: 3 µM
- IC50 [8]: 6.5 µM

Compound: COc1cccc(NC(=O)Nc2ccc(C(F)(F)F)cc2)c1 [Compound 40]
- IC50 [6, 12]: 31 µM
- IC50 [7]: 5.2 µM
- IC50 [8]: 11 µM
